Measurements published in publication PMC12363342, “Investigating the N-terminal linker histone H1 subtypes as substrates for JmjC lysine demethylases” (RSC Chemical Biology, 2025).
Square brackets hold non-standard residues; d marks the D form. Ends that are not written are not given here. Lys(Me2) = CN(C)CCCC[C@H](N)C(=O)O

Key:
KDM4A = experiment: LC-MS demethylation activity assay, KDM4A; assay type: biochemical, human; conditions: 10 μM FAS, 100 μM LAA, 20 μM 2OG, room temperature
Description: (§1) The substrate specificity of JmjC KDMs for H1 was examined using liquid chromatography coupled to mass spectrometry (LC-MS) assays. The H1 peptides (10 μM) were incubated with the recombinant KDM (2 μM) in HEPES buffer at pH 7.5 at room temperature for 2 h, in the presence of ferrous(II) ammonium sulfate (FAS, 10 μM), sodium ascorbate (LAA, 100 μM) and 2OG (20 μM), and then quenched with formic acid. N^ε-Methylated H3K9 and H3K36 peptides were used as positive controls (Fig. 3–5 and Fig. S2–S6).[26]
(§2) The catalytic domains of the JmjC KDMs used were recombinantly produced as reported in either Escherichia coli (KDM4AM1-L359,[38] KDM4DM1-L359,[39] KDM4EM1-R336,[30] KDM6BD1141–E1590[40] and KDM3CL2157-L2500) or Sf9 cells (KDM3AT515–S1317, KDM3B882–1761, and KDM5DM1-D775) as N-terminally His6-tagged proteins. […] To produce proteins, DNA sequences encoding for KDM3A, KDM3B and KDM5D were inserted into the pFB-LIC vector, containing a TEV-protease cleavable N-terminal 6x-histidine tag via ligation independent cloning (LIC). The resultant plasmids were transformed into baculovirus and Sf9 cells ([…]) which were infected with the virus stock. The cells were grown at 27 °C and 90 rpm for 70 h. Cells were then harvested and suspended in 100 mL of lysis buffer (50 mM HEPES-NaOH, pH 7.4, 500 mM NaCl, 20 mM imidazole, 0.5 mM Tris (2-carboxyethyl)phosphine (TCEP), 5% (v/v) glycerol). […] The supernatant was loaded onto a Ni-NTA gravity column, washed with 10 column volume of lysis buffer and eluted using the elution buffer (50 mM HEPES-NaOH, pH 7.4, 500 mM NaCl, 300 mM imidazole, 0.5 mM TCEP, 5% (v/v) glycerol). The eluted protein was further purified using S200 gel filtration column chromatography (50 mM HEPES-NaOH, pH 7.4, 150 mM NaCl, 0.5 mM TCEP and 5% glycerol). Protein purity was analysed by SDS-PAGE and further confirmed by mass spectrometry. Selected fractions were pooled, concentrated and stored at −80 °C.
(§3) All reagents were purchased from Sigma Aldrich and were of the highest grade available. Ferrous(II) ammonium sulfate (FAS) solutions were prepared freshly by dissolving FAS to 400 mM in 20 mM HCl with subsequent dilution to 1 mM using deionized water. Fresh 2OG (10 mM) and LAA (50 mM) solutions were prepared by dissolving the solids in deionised water. All enzyme reactions were performed in 384-well plates (Greiner Bio-One) with a final reaction volume of 50 μL. Substrate mixtures contained 50 mM HEPES pH 7.5, LAA (100 μM), FAS (10 μM), 2OG (20 μM) and an H1 isoform peptide (10 μM). Reactions were initiated by the addition of enzyme to a final concentration of 2.0 μM. After 2 h, the reactions were stopped by the addition of 5 μL of 10% (v/v) LC-MS grade formic acid (Fisher Scientific) to a final concentration of 1% (v/v). Product analyses were performed by liquid chromatography-mass spectrometry (LC-MS) using an Agilent 1290 infinity II LC system equipped with an Agilent 1290 multisampler and an Agilent 1290 high speed pump and connected to an Agilent 6550 accurate mass iFunnel quadrupole time of flight (Q-TOF) mass spectrometer. 1 μL of the reaction mixture was injected onto a 1.8 μm × 2.1 × 50 mm ZORBAX RRHD Eclipse Plus C18 column (Agilent). Solvent A consisted of HPLC grade water containing 0.1% (v/v) formic acid and solvent B consisted of MeCN containing 0.1% (v/v) formic acid. Peptides were separated using a stepwise gradient (0 min – 95% solvent A, 1.0 min – 80% solvent A, 3.0 min – 45% solvent A, 4.0 min – 45% solvent A, 5.0 min – 0% solvent A, 6.0 min – 0% solvent A, 7.0 min – 95% solvent A). This was followed by a 3 min post-run with 95% solvent A to re-equilibrate the column. All flow rates were 0.2 mL min^−1. A blank injection of HPLC grade water was carried out between each sample injection.

KDM3C = experiment: LC-MS demethylation activity assay, KDM3C; assay type: biochemical, human; conditions: 2 μM KDM, 10 μM H1/H3 peptide, 10 μM FAS, 100 μM LAA, 20 μM 2OG, 50 mM HEPES pH 7.5, 2 h, room temperature
Description: as §1, §2, §3

KDM4D = target: T1, KDM4D (Homo sapiens, UniProt Q6B0I6); experiment: LC-MS demethylation activity assay, KDM4D; assay type: biochemical; conditions: room temperature
T1 construct: KDM4AM1-L359,[38]; KDM4DM1-L359,[39]; KDM4EM1-R336,[30]; His6 (N); made in house; host or cells: Escherichia coli
T1 sequence (Q6B0I6 1-359): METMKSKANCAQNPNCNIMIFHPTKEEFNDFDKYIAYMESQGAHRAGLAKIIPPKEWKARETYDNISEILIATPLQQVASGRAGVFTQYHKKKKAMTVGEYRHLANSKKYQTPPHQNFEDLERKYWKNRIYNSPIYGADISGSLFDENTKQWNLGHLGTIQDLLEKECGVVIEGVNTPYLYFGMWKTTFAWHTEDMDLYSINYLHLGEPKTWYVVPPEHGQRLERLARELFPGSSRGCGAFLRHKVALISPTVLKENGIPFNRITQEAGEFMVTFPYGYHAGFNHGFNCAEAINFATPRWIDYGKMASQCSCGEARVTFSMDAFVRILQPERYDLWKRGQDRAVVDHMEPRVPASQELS
Description: as §1, §2, §3

KDM6B = experiment: LC-MS demethylation activity assay, KDM6B; assay type: biochemical, human; conditions: 2 μM KDM, 10 μM H1/H3 peptide, 10 μM FAS, 100 μM LAA, 20 μM 2OG, 50 mM HEPES pH 7.5, 2 h, room temperature
Description: as §1, §2, §3

KDM4E = target: T2, KDM4E (Homo sapiens, UniProt B2RXH2); experiment: LC-MS demethylation activity assay, KDM4E; assay type: biochemical; conditions: room temperature
T2 construct: KDM4DM1-L359,[39]; KDM4EM1-R336,[30]; His6 (N); made in house; host or cells: Escherichia coli
T2 sequence (B2RXH2 1-336): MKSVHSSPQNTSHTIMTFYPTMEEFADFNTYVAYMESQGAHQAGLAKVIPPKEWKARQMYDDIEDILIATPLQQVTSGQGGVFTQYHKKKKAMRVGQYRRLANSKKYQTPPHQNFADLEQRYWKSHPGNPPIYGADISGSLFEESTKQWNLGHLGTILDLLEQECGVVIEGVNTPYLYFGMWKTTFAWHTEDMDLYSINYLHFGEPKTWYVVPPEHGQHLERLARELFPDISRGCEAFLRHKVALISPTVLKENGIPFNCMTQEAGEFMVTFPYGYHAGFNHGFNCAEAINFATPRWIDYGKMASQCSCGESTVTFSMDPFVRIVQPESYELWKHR
Description: as §1, §2, §3

KDM3A = experiment: LC-MS demethylation activity assay, KDM3A; assay type: biochemical, human; conditions: 2 μM KDM, 10 μM H1/H3 peptide, 10 μM FAS, 100 μM LAA, 20 μM 2OG, 50 mM HEPES pH 7.5, 2 h, room temperature
Description: as §1, §2, §3

KDM5D = experiment: LC-MS demethylation activity assay, KDM5D; assay type: biochemical, human; conditions: 2 μM KDM, 10 μM H1/H3 peptide, 10 μM FAS, 100 μM LAA, 20 μM 2OG, 50 mM HEPES pH 7.5, 2 h, room temperature
Description: as §1, §2, §3

KDM3B = experiment: LC-MS demethylation activity assay, KDM3B; assay type: biochemical, human; conditions: 2 μM KDM, 10 μM H1/H3 peptide, 10 μM FAS, 100 μM LAA, 20 μM 2OG, 50 mM HEPES pH 7.5, 2 h, room temperature
Description: as §1, §2, §3

[1] = D (di-) initial methylation state
[2] = 2 μM KDM4D, 10 μM peptide, standard conditions, 2 h
[3] = 2 μM KDM, 10 μM H1/H3 peptide, 10 μM FAS, 100 μM LAA, 20 μM 2OG, 50 mM HEPES pH 7.5, 2 h, D (di-) initial methylation state
[4] = M (mono-) initial methylation state
[5] = 2 μM KDM, 10 μM H1/H3 peptide, 10 μM FAS, 100 μM LAA, 20 μM 2OG, 50 mM HEPES pH 7.5, 2 h, M (mono-) initial methylation state

Substance | substrate conversion (demethylation) by KDM4A (KDM4A; 2 μM KDM4A, 10 μM peptide, HEPES pH 7.5, 2 h) | KDM4A demethylation activity, D (KDM4A; 2 μM KDM, 10 μM H1/H3 peptide, 50 mM HEPES pH 7.5, 2 h, D (di-) initial methylation state) | KDM3C demethylation activity, D (KDM3C; [1]) | mono-methylated product formed by KDM4D (KDM4D; [2]) | non-methylated product formed by KDM4D (KDM4D; [2]) | KDM4D demethylation activity, D (KDM4D; [3]) | KDM6B demethylation activity, D (KDM6B; [1]) | unmethylated lysine product formed by KDM4E (KDM4E; 2 μM KDM4E, 10 μM peptide, standard conditions, 2 h) | KDM4E demethylation activity, D (KDM4E; [3]) | KDM3A demethylation activity, D (KDM3A; [1]) | KDM5D demethylation activity, D (KDM5D; [1]) | KDM3B demethylation activity, D (KDM3B; [1]) | KDM4A demethylation activity, M (KDM4A; 2 μM KDM, 10 μM H1/H3 peptide, 50 mM HEPES pH 7.5, 2 h, M (mono-) initial methylation state) | KDM3C demethylation activity, M (KDM3C; [4]) | KDM4D demethylation activity, M (KDM4D; [5]) | KDM6B demethylation activity, M (KDM6B; [4]) | KDM4E demethylation activity, M (KDM4E; [5]) | KDM3A demethylation activity, M (KDM3A; [4]) | KDM5D demethylation activity, M (KDM5D; [4]) | KDM3B demethylation activity, M (KDM3B; [4])
KKKA[Lys(Me2)]KAGATAGKRK [Peptide H1.3K24me2, 15-mer linker histone H1.3 residues 20-34 peptide, di-methylated K24] | ~23% | ● [yellow] (yellow dots indicate moderate demethylation (<50% conversion)) | ● [red] | ~53% | ~8% | ● [green] (green dots indicate good demethylation (>50% conversion)) | ● [red] | ~60% | ● [green] (green dots indicate good demethylation (>50% conversion)) | ● [red] | ● [red] | ● [red] | – | – | – | – | – | – | – | –
SAPATGGVKmeKPHRYRPGTVAL [Peptide H3K36me, histone H3 residues 28-48 peptide with mono-methylated K36; control, reference compound] | – | – | – | – | – | – | – | – | – | – | – | – | ● [red] | ● [red] | ● [red] | ● [red] | ● [red] | ● [red] | ● [red] | ● [red]
